Source: PubChem BioAssay AID248 (DTP/NCI, 2004)
“And” between values parts separate entries of the source, which are not always exact repeats. Identical values can stand only once. Inconclusive results and toxic doses are left out. No stated cut-off is given here; in the data, active means T/C of 150% or more; inactive means T/C below 125%.

Test system: L1210 leukemia ip in BDF1 mice, survival T/C
Assay: NCI In Vivo Anticancer Drug Screen. Data for tumor model L1210 Leukemia (intraperitoneal) in B6D2F1 (BDF1) mice
Details: endpoint: mean survival time, higher = longer survival
How it was run: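 Transplanted-tumor mice were given test agent; controls received vehicle only. Survival readings from the two groups were divided (treated over control).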

[1] = dose: 100.0 mg/kg/injection, schedule: Q01DX009 (ip), vehicle: saline with Tween-80
[2] = dose: 100.0 mg/kg/injection, schedule: Q04DX003 (ip), vehicle: saline with Tween-80
[3] = dose: 200.0 mg/kg/injection, schedule: Q01DX009 (ip), vehicle: saline with Tween-80
[4] = dose: 200.0 mg/kg/injection, schedule: Q04DX003 (ip), vehicle: saline with Tween-80
[5] = dose: 400.0 mg/kg/injection, schedule: Q04DX003 (ip), vehicle: saline with Tween-80
[6] = dose: 100.0 mg/kg/injection, schedule: Q01DX001 (ip), vehicle: saline with Tween-80
[7] = dose: 100.0 mg/kg/injection, schedule: Q01DX001 (ip), vehicle: saline
[8] = dose: 100.0 mg/kg/injection, schedule: Q04DX003 (ip), vehicle: saline
[9] = dose: 100.0 mg/kg/injection, schedule: Q01DX009 (ip), vehicle: Klucel (hydroxypropylcellulose) (HPC)
[10] = dose: 100.0 mg/kg/injection, schedule: Q04DX003 (ip), vehicle: Klucel (hydroxypropylcellulose) (HPC)
[11] = dose: 200.0 mg/kg/injection, schedule: Q04DX003 (ip), vehicle: Klucel (hydroxypropylcellulose) (HPC)
[12] = dose: 100.0 mg/kg/injection, schedule: Q01DX009 (ip), vehicle: saline

Measured: T/C

CC(C)CSC(C)C
inactive: dose: 50.0 mg/kg/injection, schedule: Q01DX009 (ip), vehicle: saline with Tween-80 98 % of control | [1] 96 % of control | [2] 107 % of control | [3] 91 % of control | [4] 105 % of control | [5] 87 % of control

CC(C)CCn1ccc(N)nc1=O
inactive: dose: 25.0 mg/kg/injection, schedule: Q01DX001 (ip), vehicle: saline with Tween-80 97 % of control | dose: 50.0 mg/kg/injection, schedule: Q01DX001 (ip), vehicle: saline with Tween-80 101 % of control | [6] 90 % of control

O=C(NCCCNC(=O)Nc1cccc(C2=NCCN2)c1)Nc1cccc(C2=NCCN2)c1
inactive: dose: 8.0 mg/kg/injection, schedule: Q01DX Z (ip), vehicle: carboxymethylcellulose (CMC) 104 % of control | dose: 16.0 mg/kg/injection, schedule: Q01DX Z (ip), vehicle: carboxymethylcellulose (CMC) 111 % of control | dose: 32.0 mg/kg/injection, schedule: Q01DX Z (ip), vehicle: carboxymethylcellulose (CMC) 104 % of control | dose: 64.0 mg/kg/injection, schedule: Q01DX Z (ip), vehicle: carboxymethylcellulose (CMC) 94 % of control

CC(C)(C)NN
inactive: dose: 5.0 mg/kg/injection, schedule: Q01DX001 (ip), vehicle: saline 102 % of control | dose: 10.0 mg/kg/injection, schedule: Q01DX001 (ip), vehicle: saline 104 % of control | dose: 20.0 mg/kg/injection, schedule: Q01DX001 (ip), vehicle: saline 98 % of control | dose: 40.0 mg/kg/injection, schedule: Q01DX001 (ip), vehicle: saline 94 % of control | dose: 80.0 mg/kg/injection, schedule: Q01DX001 (ip), vehicle: saline 96 % of control | [7] 101 % of control

CCN(CC)CCOC(=O)c1ccccc1Nc1cccc(C)c1
inactive: dose: 4.0 mg/kg/injection, schedule: Q01DX015 (ip), vehicle: saline 98 % of control | dose: 8.0 mg/kg/injection, schedule: Q01DX015 (ip), vehicle: saline 102 % of control | dose: 16.0 mg/kg/injection, schedule: Q01DX015 (ip), vehicle: saline 98 % of control | dose: 32.0 mg/kg/injection, schedule: Q01DX015 (ip), vehicle: saline 106 % of control | dose: 50.0 mg/kg/injection, schedule: Q04DX003 (ip), vehicle: saline 101 % of control | [8] 103 % of control

C1=C(/c2ccccc2)CCCCCC/1
inactive: dose: 37.5 mg/kg/injection, schedule: Q01DX009 (ip), vehicle: saline 101 % of control | dose: 75.0 mg/kg/injection, schedule: Q01DX001 (ip), vehicle: acetone 98 % of control | dose: 75.0 mg/kg/injection, schedule: Q01DX009 (ip), vehicle: saline 90 % of control | dose: 150.0 mg/kg/injection, schedule: Q01DX001 (ip), vehicle: acetone 93 % of control | dose: 150.0 mg/kg/injection, schedule: Q01DX009 (ip), vehicle: saline 103 % of control | dose: 300.0 mg/kg/injection, schedule: Q01DX001 (ip), vehicle: acetone 91 % of control

C1=C\CCCC/C=C/CC/1
inactive: dose: 50.0 mg/kg/injection, schedule: Q01DX001 (ip), vehicle: saline 103 % of control | [7] 92 % of control | dose: 200.0 mg/kg/injection, schedule: Q01DX001 (ip), vehicle: saline 101 % of control | dose: 400.0 mg/kg/injection, schedule: Q01DX001 (ip), vehicle: saline 90 % of control

O=C(NC(=S)Nc1ccc(F)cc1)c1ccco1
inactive: dose: 50.0 mg/kg/injection, schedule: Q01DX009 (ip), vehicle: Klucel (hydroxypropylcellulose) (HPC) 94 % of control | [9] 92 % of control | [10] 103 % of control | [11] 97 % of control

COC(=O)[C@]1(C)CCC[C@]2(C)c3cc(C(C)=O)c(C(C)C)cc3CC[C@@H]12
inactive: [2] 102 % of control | [4] 105 % of control | [5] 98 % of control

CSc1ncnc2n[nH]c(Br)c12
inactive: dose: 100.0 mg/kg/injection, schedule: Q01DX005 (ip), vehicle: saline 93 % of control

O=C(O)CCC(=O)CC[N+](=O)[O-]
inactive: dose: 75.0 mg/kg/injection, schedule: Q01DX001 (ip), vehicle: saline 94 % of control | dose: 150.0 mg/kg/injection, schedule: Q01DX001 (ip), vehicle: saline 97 % of control

COc1ccc(Br)cc1CCCO
inactive: [2] 94 % of control | [4] 92 % of control | [5] 95 % of control

CCCCC(CCN(C)C)(CNC(=O)CN(CC)CC)c1cccc2ccccc12 (stereo not drawn)
inactive: dose: 25.0 mg/kg/injection, schedule: Q01DX009 (ip), vehicle: saline 91 % of control | dose: 50.0 mg/kg/injection, schedule: Q01DX009 (ip), vehicle: saline 91 % of control | [12] 90 % of control | [8] 100 % of control

CCS(=O)(=O)CC(C)O (stereo not drawn)
inactive: [12] 90 % of control | dose: 100.0 mg/kg/injection, schedule: Q04DX002 (ip), vehicle: saline 101 % of control | dose: 200.0 mg/kg/injection, schedule: Q01DX009 (ip), vehicle: saline 93 % of control | dose: 400.0 mg/kg/injection, schedule: Q01DX009 (ip), vehicle: saline 104 % of control | dose: 400.0 mg/kg/injection, schedule: Q04DX002 (ip), vehicle: saline 108 % of control

N/C(=N\Cl)C(Cl)(Cl)Cl
inactive: dose: 12.5 mg/kg/injection, schedule: Q04DX003 (ip), vehicle: saline with Tween-80 103 % of control | dose: 25.0 mg/kg/injection, schedule: Q04DX003 (ip), vehicle: saline with Tween-80 103 % of control | dose: 50.0 mg/kg/injection, schedule: Q04DX003 (ip), vehicle: saline with Tween-80 103 % of control

BrC1C2CCC(CC2)C1Br (stereo not drawn)
inactive: [9] 92 % of control | [10] 100 % of control | dose: 200.0 mg/kg/injection, schedule: Q01DX009 (ip), vehicle: Klucel (hydroxypropylcellulose) (HPC) 92 % of control | [11] 100 % of control | dose: 400.0 mg/kg/injection, schedule: Q01DX009 (ip), vehicle: Klucel (hydroxypropylcellulose) (HPC) 94 % of control | dose: 400.0 mg/kg/injection, schedule: Q04DX003 (ip), vehicle: Klucel (hydroxypropylcellulose) (HPC) 96 % of control

CSc1ncnc2c1ncn2NC(C)=O
inactive: dose: 88.0 mg/kg/injection, schedule: Q01DX009 (ip), vehicle: other 107 % of control | dose: 100.0 mg/kg/injection, schedule: Q01DX001 (ip), vehicle: other 98 % of control | dose: 134.0 mg/kg/injection, schedule: Q01DX009 (ip), vehicle: other 104 % of control | dose: 200.0 mg/kg/injection, schedule: Q01DX001 (ip), vehicle: other 104 % of control | dose: 200.0 mg/kg/injection, schedule: Q01DX009 (ip), vehicle: other 113 % of control | dose: 300.0 mg/kg/injection, schedule: Q01DX009 (ip), vehicle: other 120 % of control | dose: 400.0 mg/kg/injection, schedule: Q01DX001 (ip), vehicle: other 112 % of control

CC(=O)c1cccc(OC(=O)Nc2ccc(Cl)cc2)c1
inactive: dose: 100.0 mg/kg/injection, schedule: Q01DX001 (ip), vehicle: carboxymethylcellulose (CMC) 89 % of control | dose: 100.0 mg/kg/injection, schedule: Q01DX009 (ip), vehicle: carboxymethylcellulose (CMC) 101 % of control and 102 % of control | dose: 100.0 mg/kg/injection, schedule: Q04DX003 (ip), vehicle: carboxymethylcellulose (CMC) 92 % of control and 90 % of control | dose: 200.0 mg/kg/injection, schedule: Q01DX001 (ip), vehicle: carboxymethylcellulose (CMC) 94 % of control | dose: 200.0 mg/kg/injection, schedule: Q01DX009 (ip), vehicle: carboxymethylcellulose (CMC) 98 % of control and 90 % of control | dose: 200.0 mg/kg/injection, schedule: Q04DX003 (ip), vehicle: carboxymethylcellulose (CMC) 95 % of control and 97 % of control | dose: 400.0 mg/kg/injection, schedule: Q01DX001 (ip), vehicle: carboxymethylcellulose (CMC) 89 % of control | dose: 400.0 mg/kg/injection, schedule: Q01DX009 (ip), vehicle: carboxymethylcellulose (CMC) 98 % of control and 88 % of control | dose: 400.0 mg/kg/injection, schedule: Q04DX003 (ip), vehicle: carboxymethylcellulose (CMC) 90 % of control

C=CCN(CC=C)/N=N/c1[nH]ncc1C(=O)OCC
inactive: [6] 100 % of control | [1] 106 % of control | dose: 200.0 mg/kg/injection, schedule: Q01DX001 (ip), vehicle: saline with Tween-80 92 % of control | [3] 100 % of control | dose: 400.0 mg/kg/injection, schedule: Q01DX001 (ip), vehicle: saline with Tween-80 101 % of control | dose: 400.0 mg/kg/injection, schedule: Q01DX009 (ip), vehicle: saline with Tween-80 104 % of control
